Experimental data as given in PubChem BioAssay AID1259407 (Chemical Carcinogenesis Research Information System (CCRIS), 2018).
The source made the active and inactive calls. How the calls were made is not given here.

Test system: CCRIS mutagenicity, Ames/micronucleus/aberration tests
Experiment: CCRIS mutagenicity studies

Structure (SMILES): CSC1=N[C@@](C)(c2ccccc2)C(=O)N1Nc1ccccc1
- mutagenic call (End Point: In vitro chromosomal aberrations, Test System: Human peripheral blood lymphocytes, Metabolic Activation: None): active; positive
- mutagenic call (End Point: In vitro chromosomal aberrations, Test System: Human peripheral blood lymphocytes, Metabolic Activation: S-9): active; positive
- mutagenic call (End Point: In vivo micronucleus, Test System: Bone marrow polychromatic erythrocytes, Species: Mouse, Strain/Sex: CD-1/Male and female, Route: Intraperitoneal): inactive; negative
- mutagenic call (End Point: UDS, Test System: Rat hepatocytes, Species: Wistar/Male, Method: Autoradiography): inactive; negative. (higher doses too toxic to score)
- mutagenic call (Test System: Ames Salmonella typhimurium, Strain/Indicator: TA98, Metabolic Activation: None, Method: Plate incorporation and preincubation): inactive; negative
- mutagenic call (Test System: Ames Salmonella typhimurium, Strain/Indicator: TA98, Metabolic Activation: Rat, Liver, S-9, Method: Plate incorporation and preincubation): inactive; negative
- mutagenic call (Test System: Ames Salmonella typhimurium, Strain/Indicator: TA100, Metabolic Activation: None, Method: Plate incorporation and preincubation): inactive; negative
- mutagenic call (Test System: Ames Salmonella typhimurium, Strain/Indicator: TA100, Metabolic Activation: Rat, Liver, S-9, Method: Plate incorporation and preincubation): inactive; negative
- mutagenic call (Test System: Ames Salmonella typhimurium, Strain/Indicator: TA102, Metabolic Activation: None, Method: Plate incorporation and preincubation): inactive; negative
- mutagenic call (Test System: Ames Salmonella typhimurium, Strain/Indicator: TA102, Metabolic Activation: Rat, Liver, S-9, Method: Plate incorporation and preincubation): inactive; negative
- mutagenic call (Test System: Ames Salmonella typhimurium, Strain/Indicator: TA1535, Metabolic Activation: None, Method: Plate incorporation and preincubation): inactive; negative
- mutagenic call (Test System: Ames Salmonella typhimurium, Strain/Indicator: TA1535, Metabolic Activation: Rat, Liver, S-9, Method: Plate incorporation and preincubation): inactive; negative
- mutagenic call (Test System: Ames Salmonella typhimurium, Strain/Indicator: TA1537, Metabolic Activation: None, Method: Plate incorporation and preincubation): inactive; negative
- mutagenic call (Test System: Ames Salmonella typhimurium, Strain/Indicator: TA1537, Metabolic Activation: Rat, Liver, S-9, Method: Plate incorporation and preincubation): inactive; negative
- mutagenic call (Test System: Mouse lymphoma, Strain/Indicator: L5178Y (tk+/tk-), Metabolic Activation: None, Method: Microtiter fluctuation): inactive; negative
- mutagenic call (Test System: Mouse lymphoma, Strain/Indicator: L5178Y (tk+/tk-), Metabolic Activation: S-9, Method: Microtiter fluctuation): active; positive. (increase in small colony mutant frequency indicates clastogenicity)

Structure (SMILES): O=C1c2ccccc2C(=O)N1SC(Cl)(Cl)Cl
- mutagenic call (Test System: AMES SALMONELLA TYPHIMURIUM, Strain/Indicator: TA98, Metabolic Activation: NONE, Method: STANDARD PLATE): inactive; negative
- mutagenic call (Test System: AMES SALMONELLA TYPHIMURIUM, Strain/Indicator: TA100, Metabolic Activation: NONE, Method: PREINCUBATION): active; positive
- mutagenic call (Test System: AMES SALMONELLA TYPHIMURIUM, Strain/Indicator: TA100, Metabolic Activation: RAT, LIVER, S-9, AROCLOR 1254, Method: STANDARD PLATE): active; positive
- mutagenic call (Test System: AMES SALMONELLA TYPHIMURIUM, Strain/Indicator: TA100, Metabolic Activation: RAT, LIVER, S-9, Method: STANDARD PLATE): active; positive
- mutagenic call (Test System: AMES SALMONELLA TYPHIMURIUM, Strain/Indicator: TA100, Metabolic Activation: S-9 MIX, Method: STANDARD PLATE): active; positive
- mutagenic call (Test System: AMES SALMONELLA TYPHIMURIUM, Strain/Indicator: TA102, Metabolic Activation: NONE, Method: STANDARD PLATE): inactive; negative
- mutagenic call (Test System: AMES SALMONELLA TYPHIMURIUM, Strain/Indicator: TA104, Metabolic Activation: NONE, Method: STANDARD PLATE): active; positive
- mutagenic call (Test System: AMES SALMONELLA TYPHIMURIUM, Strain/Indicator: TA104, Metabolic Activation: RAT, LIVER, S-9, PHENOBARBITAL, Method: STANDARD PLATE): active; positive
- mutagenic call (Test System: AMES SALMONELLA TYPHIMURIUM, Strain/Indicator: TA1535, Metabolic Activation: NONE, Method: STANDARD PLATE): active; positive
- mutagenic call (Test System: AMES SALMONELLA TYPHIMURIUM, Strain/Indicator: TA1535, Metabolic Activation: RAT, LIVER, S-9, AROCLOR 1254, Method: STANDARD PLATE): active; positive
- mutagenic call (Test System: E. COLI, Strain/Indicator: WP2, Metabolic Activation: NONE, Method: STANDARD PLATE): active; positive
- mutagenic call (Test System: E. COLI, Strain/Indicator: WP2, Metabolic Activation: RAT, LIVER, S-9, Method: STANDARD PLATE): active; positive
- mutagenic call (Test System: E. COLI, Strain/Indicator: WP2 UVRA, Metabolic Activation: NONE, Method: STANDARD PLATE): active; positive
- mutagenic call (Test System: E. COLI, Strain/Indicator: WP2 UVRA, Metabolic Activation: RAT, LIVER, S-9, AROCLOR 1254, Method: STANDARD PLATE): active; positive
